{
  "source": "paper PMC4774911",
  "about": "“Biochemical Screening of Five Protein Kinases from Plasmodium falciparum against 14,000 Cell-Active Compounds” (PLoS ONE, 2016)",
  "test_in_all_cases": "biochemical",
  "key": {"[1]": {"target": "T1, AURKA (Homo sapiens, UniProt O14965)", "T1 sequence (O14965 1-403)": "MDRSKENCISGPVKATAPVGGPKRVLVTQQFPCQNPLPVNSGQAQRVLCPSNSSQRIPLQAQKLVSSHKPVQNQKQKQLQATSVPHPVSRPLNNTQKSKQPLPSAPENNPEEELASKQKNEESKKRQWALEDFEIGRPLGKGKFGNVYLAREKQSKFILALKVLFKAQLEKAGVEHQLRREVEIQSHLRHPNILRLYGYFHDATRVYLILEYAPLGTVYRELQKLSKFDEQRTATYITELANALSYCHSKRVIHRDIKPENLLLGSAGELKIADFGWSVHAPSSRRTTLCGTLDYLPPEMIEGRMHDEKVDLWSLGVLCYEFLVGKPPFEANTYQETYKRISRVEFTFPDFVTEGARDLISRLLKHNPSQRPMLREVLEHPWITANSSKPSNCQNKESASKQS"}, "[2]": {"target": "PAK4 (Homo sapiens, UniProt O96013)", "sequence (O96013 whole entry)": "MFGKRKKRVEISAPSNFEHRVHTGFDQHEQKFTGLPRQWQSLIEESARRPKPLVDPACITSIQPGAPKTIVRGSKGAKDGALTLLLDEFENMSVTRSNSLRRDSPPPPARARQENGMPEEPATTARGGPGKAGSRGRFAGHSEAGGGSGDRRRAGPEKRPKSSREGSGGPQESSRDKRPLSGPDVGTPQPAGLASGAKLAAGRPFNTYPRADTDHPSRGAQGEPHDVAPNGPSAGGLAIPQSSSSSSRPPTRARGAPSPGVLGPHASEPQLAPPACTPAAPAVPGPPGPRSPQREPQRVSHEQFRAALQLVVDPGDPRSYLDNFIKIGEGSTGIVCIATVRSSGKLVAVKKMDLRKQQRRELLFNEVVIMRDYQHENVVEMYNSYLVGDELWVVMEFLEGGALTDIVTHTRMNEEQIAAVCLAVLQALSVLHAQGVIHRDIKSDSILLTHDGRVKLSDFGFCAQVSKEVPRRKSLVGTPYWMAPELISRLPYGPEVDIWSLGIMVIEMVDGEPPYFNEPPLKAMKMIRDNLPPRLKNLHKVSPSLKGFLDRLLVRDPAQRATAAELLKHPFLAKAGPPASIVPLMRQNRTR"}, "[3]": {"target": "CDC42BPG (Homo sapiens, UniProt Q6DT37)", "sequence (Q6DT37 whole entry)": "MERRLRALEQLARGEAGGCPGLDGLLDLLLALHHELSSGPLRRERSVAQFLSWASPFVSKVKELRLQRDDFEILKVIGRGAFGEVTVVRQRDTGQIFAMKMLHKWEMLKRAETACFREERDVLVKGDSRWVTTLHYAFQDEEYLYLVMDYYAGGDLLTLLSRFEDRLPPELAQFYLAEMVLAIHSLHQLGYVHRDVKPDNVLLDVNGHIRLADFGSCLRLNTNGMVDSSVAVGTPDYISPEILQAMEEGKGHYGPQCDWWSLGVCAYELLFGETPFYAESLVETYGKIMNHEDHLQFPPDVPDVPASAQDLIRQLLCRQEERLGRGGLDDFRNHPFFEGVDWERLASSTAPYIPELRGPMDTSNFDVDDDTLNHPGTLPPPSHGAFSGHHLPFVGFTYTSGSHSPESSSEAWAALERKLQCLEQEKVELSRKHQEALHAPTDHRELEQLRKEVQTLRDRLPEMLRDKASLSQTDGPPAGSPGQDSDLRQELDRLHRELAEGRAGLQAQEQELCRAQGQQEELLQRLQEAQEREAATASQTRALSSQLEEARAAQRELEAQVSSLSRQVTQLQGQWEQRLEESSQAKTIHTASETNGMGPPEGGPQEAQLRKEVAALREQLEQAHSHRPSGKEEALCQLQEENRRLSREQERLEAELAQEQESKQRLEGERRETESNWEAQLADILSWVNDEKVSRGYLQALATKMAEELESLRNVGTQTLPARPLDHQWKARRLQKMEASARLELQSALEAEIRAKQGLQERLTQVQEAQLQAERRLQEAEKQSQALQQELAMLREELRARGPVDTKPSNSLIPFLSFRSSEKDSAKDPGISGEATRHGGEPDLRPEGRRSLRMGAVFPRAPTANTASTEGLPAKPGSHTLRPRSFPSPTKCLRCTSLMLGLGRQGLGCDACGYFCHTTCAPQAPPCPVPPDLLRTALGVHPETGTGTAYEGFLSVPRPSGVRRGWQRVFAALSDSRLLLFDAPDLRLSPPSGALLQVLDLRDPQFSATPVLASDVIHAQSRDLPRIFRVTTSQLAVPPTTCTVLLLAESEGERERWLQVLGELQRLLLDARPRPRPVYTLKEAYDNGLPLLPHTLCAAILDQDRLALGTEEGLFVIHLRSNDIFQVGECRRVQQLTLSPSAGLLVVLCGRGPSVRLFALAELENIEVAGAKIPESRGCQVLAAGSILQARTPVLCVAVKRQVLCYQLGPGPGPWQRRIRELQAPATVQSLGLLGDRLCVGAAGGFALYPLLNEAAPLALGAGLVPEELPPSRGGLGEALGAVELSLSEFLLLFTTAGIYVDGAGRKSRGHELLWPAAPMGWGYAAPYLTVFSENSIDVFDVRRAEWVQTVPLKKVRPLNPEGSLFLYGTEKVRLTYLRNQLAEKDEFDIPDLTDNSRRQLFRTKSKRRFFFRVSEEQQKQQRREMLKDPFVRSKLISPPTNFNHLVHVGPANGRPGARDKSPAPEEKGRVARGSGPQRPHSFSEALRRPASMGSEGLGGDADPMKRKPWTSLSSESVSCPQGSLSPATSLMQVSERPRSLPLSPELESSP"}, "[4]": {"target": "SRC (Homo sapiens, UniProt P12931)", "sequence (P12931 whole entry)": "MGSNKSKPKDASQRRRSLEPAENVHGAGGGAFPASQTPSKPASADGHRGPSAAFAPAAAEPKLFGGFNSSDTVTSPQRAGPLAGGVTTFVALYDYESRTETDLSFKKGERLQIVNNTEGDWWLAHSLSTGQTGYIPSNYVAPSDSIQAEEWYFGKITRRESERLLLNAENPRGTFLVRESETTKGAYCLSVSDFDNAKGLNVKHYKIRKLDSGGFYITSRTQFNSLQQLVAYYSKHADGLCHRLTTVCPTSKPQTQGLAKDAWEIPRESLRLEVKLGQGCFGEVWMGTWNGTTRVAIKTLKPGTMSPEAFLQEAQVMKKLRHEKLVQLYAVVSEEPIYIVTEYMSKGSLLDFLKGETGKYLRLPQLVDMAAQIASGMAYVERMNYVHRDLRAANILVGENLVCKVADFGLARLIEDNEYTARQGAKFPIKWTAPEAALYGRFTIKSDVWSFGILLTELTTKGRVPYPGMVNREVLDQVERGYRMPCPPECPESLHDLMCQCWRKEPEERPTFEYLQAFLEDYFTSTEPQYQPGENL"}, "[5]": {"target": "CSNK1E (Homo sapiens, UniProt P49674)", "sequence (P49674 whole entry)": "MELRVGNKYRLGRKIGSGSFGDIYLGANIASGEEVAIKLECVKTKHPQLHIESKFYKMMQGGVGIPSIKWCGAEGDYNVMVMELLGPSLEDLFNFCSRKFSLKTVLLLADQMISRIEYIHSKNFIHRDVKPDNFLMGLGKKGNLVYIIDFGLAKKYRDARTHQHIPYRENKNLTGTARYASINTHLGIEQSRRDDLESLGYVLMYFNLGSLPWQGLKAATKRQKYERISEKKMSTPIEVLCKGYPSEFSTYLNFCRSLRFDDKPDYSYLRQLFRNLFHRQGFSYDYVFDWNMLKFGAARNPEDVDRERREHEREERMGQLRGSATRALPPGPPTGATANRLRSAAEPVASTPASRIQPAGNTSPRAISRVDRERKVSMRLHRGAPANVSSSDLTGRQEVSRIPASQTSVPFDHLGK"}, "[6]": {"target": "MAP2K2 (Homo sapiens, UniProt P36507)", "sequence (P36507 whole entry)": "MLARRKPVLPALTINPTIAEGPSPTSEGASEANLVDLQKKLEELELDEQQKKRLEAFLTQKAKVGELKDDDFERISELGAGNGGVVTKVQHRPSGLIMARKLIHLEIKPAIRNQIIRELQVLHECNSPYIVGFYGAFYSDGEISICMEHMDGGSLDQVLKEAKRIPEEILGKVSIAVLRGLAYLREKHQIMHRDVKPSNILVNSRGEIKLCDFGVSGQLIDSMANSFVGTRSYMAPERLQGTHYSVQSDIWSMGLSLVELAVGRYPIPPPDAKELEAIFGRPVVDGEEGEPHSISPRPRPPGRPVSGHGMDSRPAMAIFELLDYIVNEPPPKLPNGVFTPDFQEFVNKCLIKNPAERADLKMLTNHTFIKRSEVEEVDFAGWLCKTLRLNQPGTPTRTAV"}, "[7]": {"target": "T2, MASTL (Homo sapiens, UniProt Q96GX5)", "T2 sequence (Q96GX5 1-879)": "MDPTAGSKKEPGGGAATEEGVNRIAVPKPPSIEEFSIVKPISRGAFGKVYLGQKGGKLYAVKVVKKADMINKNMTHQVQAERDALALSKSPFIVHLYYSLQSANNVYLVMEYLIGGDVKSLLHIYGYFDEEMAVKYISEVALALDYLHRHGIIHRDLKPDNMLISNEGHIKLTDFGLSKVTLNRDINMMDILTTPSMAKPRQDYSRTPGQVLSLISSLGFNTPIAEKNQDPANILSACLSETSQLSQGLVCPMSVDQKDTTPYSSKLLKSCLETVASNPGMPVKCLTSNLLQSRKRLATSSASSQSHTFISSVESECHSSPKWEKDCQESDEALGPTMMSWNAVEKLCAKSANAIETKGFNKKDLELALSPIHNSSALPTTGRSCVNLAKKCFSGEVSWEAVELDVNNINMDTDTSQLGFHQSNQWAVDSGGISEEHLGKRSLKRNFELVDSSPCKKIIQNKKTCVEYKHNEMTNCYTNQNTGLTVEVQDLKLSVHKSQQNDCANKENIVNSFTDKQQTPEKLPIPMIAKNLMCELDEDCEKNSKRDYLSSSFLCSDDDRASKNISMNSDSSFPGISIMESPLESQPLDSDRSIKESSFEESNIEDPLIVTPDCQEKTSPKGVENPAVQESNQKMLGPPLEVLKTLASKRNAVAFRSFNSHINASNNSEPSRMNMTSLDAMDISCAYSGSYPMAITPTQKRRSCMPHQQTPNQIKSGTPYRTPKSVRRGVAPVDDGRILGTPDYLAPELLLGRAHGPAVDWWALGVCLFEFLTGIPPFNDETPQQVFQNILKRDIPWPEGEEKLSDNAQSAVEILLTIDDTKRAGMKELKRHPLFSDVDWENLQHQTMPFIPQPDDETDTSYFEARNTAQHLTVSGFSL"}, "[8]": {"target": "CLK1 (Homo sapiens, UniProt P49759)", "sequence (P49759 whole entry)": "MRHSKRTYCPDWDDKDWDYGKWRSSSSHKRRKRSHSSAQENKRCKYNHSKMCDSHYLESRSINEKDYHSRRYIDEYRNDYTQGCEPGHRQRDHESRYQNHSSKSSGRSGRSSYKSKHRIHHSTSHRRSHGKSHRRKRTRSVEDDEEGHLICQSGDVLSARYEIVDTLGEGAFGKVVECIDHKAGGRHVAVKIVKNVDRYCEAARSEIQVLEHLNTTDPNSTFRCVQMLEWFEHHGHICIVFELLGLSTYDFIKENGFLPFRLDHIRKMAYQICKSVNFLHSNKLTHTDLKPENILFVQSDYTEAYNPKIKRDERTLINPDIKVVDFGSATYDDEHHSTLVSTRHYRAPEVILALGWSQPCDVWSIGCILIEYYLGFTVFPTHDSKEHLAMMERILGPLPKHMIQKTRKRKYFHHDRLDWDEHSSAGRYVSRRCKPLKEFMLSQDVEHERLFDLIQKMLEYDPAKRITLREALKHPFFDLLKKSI"}, "[9]": {"target": "CSNK2A2 (Homo sapiens, UniProt P19784)", "sequence (P19784 whole entry)": "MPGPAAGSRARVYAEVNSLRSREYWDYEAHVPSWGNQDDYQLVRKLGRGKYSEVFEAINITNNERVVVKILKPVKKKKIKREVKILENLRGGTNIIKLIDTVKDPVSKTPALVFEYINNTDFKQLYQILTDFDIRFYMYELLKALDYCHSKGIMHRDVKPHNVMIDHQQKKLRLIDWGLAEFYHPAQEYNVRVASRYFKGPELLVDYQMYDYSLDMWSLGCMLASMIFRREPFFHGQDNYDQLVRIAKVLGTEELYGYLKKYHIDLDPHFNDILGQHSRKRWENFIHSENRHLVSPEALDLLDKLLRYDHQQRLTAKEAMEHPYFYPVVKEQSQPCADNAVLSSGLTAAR"}, "[10]": {"target": "T3, TNK1 (Homo sapiens, UniProt Q13470)", "T3 sequence (Q13470 1-666)": "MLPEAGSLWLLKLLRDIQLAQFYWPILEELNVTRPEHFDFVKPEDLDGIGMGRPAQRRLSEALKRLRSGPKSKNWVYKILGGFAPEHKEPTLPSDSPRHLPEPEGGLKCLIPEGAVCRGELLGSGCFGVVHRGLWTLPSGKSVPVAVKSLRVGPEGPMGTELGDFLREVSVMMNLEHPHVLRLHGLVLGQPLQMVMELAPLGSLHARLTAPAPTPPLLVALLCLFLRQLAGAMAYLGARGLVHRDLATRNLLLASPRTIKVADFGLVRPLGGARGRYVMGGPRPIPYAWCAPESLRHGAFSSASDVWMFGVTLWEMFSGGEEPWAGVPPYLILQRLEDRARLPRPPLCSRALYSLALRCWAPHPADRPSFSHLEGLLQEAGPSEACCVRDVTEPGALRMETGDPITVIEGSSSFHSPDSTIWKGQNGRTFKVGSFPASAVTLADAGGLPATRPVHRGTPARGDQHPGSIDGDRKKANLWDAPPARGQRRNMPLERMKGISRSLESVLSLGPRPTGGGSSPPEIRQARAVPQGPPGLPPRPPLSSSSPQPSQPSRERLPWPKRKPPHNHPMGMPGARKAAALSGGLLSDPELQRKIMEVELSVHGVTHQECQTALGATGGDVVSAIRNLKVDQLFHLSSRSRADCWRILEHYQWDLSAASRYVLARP"}},
  "note": "Where “and” joins values, the source holds several entries; their conditions need not be identical. Equal values may be shown once.",
  "data": [
    {"molecule": "CN1CCN(c2ccc(Nc3ncc(C#N)c(Nc4ccccc4C(N)=O)n3)cc2)CC1.Cl", "note": "[TCMDC-134116]", "values": [
      {"measurement": "IC50", "setting": "[1]", "result": "≤ 32 nM and 52 nM"},
      {"measurement": "IC50", "setting": "[2]", "result": "380 nM and 420 nM"},
      {"measurement": "IC50", "setting": "[3]", "result": 1000, "unit": "nM"},
      {"measurement": "IC50", "setting": "[4]", "result": "480 nM and 410 nM"},
      {"measurement": "IC50", "setting": "[5]", "result": "1600 nM and 4100 nM"},
      {"measurement": "IC50", "setting": "[6]", "result": "830 nM and 980 nM"},
      {"measurement": "IC50", "setting": "[7]", "result": "280 nM and 610 nM"},
      {"measurement": "IC50", "setting": "[8]", "result": "47 nM and 48 nM"},
      {"measurement": "IC50", "setting": "[9]", "result": "≤ 32", "unit": "nM"},
      {"measurement": "IC50", "setting": "[10]", "result": "≤ 32", "unit": "nM"}
    ]},
    {"molecule": "Cl.NCC1(c2nc(-c3ccc(Cl)c(O)c3)c(-c3ccncc3)[nH]2)CCCCC1", "note": "[TCMDC-141154]", "values": [
      {"measurement": "IC50", "setting": "[1]", "result": "> 20000", "unit": "nM"},
      {"measurement": "IC50", "setting": "[2]", "result": "9100 nM and > 20000 nM"},
      {"measurement": "IC50", "setting": "[3]", "result": 8000, "unit": "nM"},
      {"measurement": "IC50", "setting": "[4]", "result": 290, "unit": "nM"},
      {"measurement": "IC50", "setting": "[5]", "result": 330, "unit": "nM"},
      {"measurement": "IC50", "setting": "[6]", "result": "9000 nM and > 20000 nM"},
      {"measurement": "IC50", "setting": "[7]", "result": "> 20000", "unit": "nM"},
      {"measurement": "IC50", "setting": "[8]", "result": "> 20000", "unit": "nM"},
      {"measurement": "IC50", "setting": "[9]", "result": "> 20000", "unit": "nM"},
      {"measurement": "IC50", "setting": "[10]", "result": "> 20000", "unit": "nM"}
    ]},
    {"molecule": "CN(C)CC(O)COc1ccc(Nc2ncc([N+](=O)[O-])c(Nc3ccccc3O)n2)cc1.O=C(O)C(F)(F)F", "note": "(stereo not drawn) [TCMDC-141399]", "values": [
      {"measurement": "IC50", "setting": "[1]", "result": "> 20000", "unit": "nM"},
      {"measurement": "IC50", "setting": "[2]", "result": "9000 nM and 6800 nM"},
      {"measurement": "IC50", "setting": "[3]", "result": 9600, "unit": "nM"},
      {"measurement": "IC50", "setting": "[4]", "result": "> 20000", "unit": "nM"},
      {"measurement": "IC50", "setting": "[5]", "result": "> 20000", "unit": "nM"},
      {"measurement": "IC50", "setting": "[6]", "result": "> 20000", "unit": "nM"},
      {"measurement": "IC50", "setting": "[7]", "result": "> 20000", "unit": "nM"},
      {"measurement": "IC50", "setting": "[8]", "result": "390 nM and 270 nM"},
      {"measurement": "IC50", "setting": "[9]", "result": "56 nM and 45 nM"},
      {"measurement": "IC50", "setting": "[10]", "result": "4200 nM and 1700 nM"}
    ]}
  ]
}
